Test results published in ChEMBL document CHEMBL4251578, “Design, synthesis and biological evaluation of novel 2-aminobenzamides containing dithiocarbamate moiety as histone deacetylase inhibitors and potent antitumor agents” (Eur J Med Chem, 2018).

Legend:
HeLa [1] = assay: Antiproliferative activity against human HeLa cells at 2 uM after 72 hrs by CCK-8 assay relative to control; type: functional
MGC-803 [2] = assay: Antiproliferative activity against human MGC803 cells at 2 uM after 72 hrs by CCK-8 assay relative to control; type: functional; conditions: MGC-803, 72 h
A-375 [3] = assay: Antiproliferative activity against human A375 cells at 8 uM after 72 hrs by CCK-8 assay relative to control; type: functional; conditions: A-375, 72 h
HeLa [4] = assay: Antiproliferative activity against human HeLa cells at 8 uM after 72 hrs by CCK-8 assay relative to control; type: functional
A-375 [5] = assay: Antiproliferative activity against human A375 cells at 2 uM after 72 hrs by CCK-8 assay relative to control; type: functional; conditions: A-375, 72 h
MGC-803 [6] = assay: Antiproliferative activity against human MGC803 cells at 8 uM after 72 hrs by CCK-8 assay relative to control; type: functional; conditions: MGC-803, 72 h
MGC-803 [7] = assay: Antiproliferative activity against human MGC803 cells after 72 hrs by CCK-8 assay; type: functional, cell-based; conditions: MGC-803, 72 h
HCT-116 = assay: Antiproliferative activity against human HCT116 cells after 72 hrs by CCK-8 assay; type: functional, cell-based; conditions: HCT-116, 72 h
SMMC-7721 = assay: Antiproliferative activity against human SMMC7721 cells after 72 hrs by CCK-8 assay; type: functional, cell-based; conditions: SMMC-7721, 72 h
A-375 [8] = assay: Antiproliferative activity against human A375 cells after 72 hrs by CCK-8 assay; type: functional, cell-based; conditions: A-375, 72 h
NCI-H1299 = assay: Antiproliferative activity against human NCI-H1299 cells after 72 hrs by CCK-8 assay; type: functional, cell-based; conditions: NCI-H1299, 72 h
HeLa [9] = assay: Antiproliferative activity against human HeLa cells after 72 hrs by CCK-8 assay; type: functional, cell-based

| IC50 (MGC-803 [7]) [nM] | IC50 (HCT-116) [µM] | IC50 (SMMC-7721) [nM] | IC50 (A-375 [8]) [µM] | IC50 (NCI-H1299) [µM] | IC50 (HeLa [9]) [µM] | Structure (SMILES) | inhibition at 2 µM (HeLa [1]) [%] | inhibition at 2 µM (MGC-803 [2]) [%] | inhibition at 8 µM (A-375 [3]) [%] | inhibition at 8 µM (HeLa [4]) [%] | inhibition at 2 µM (A-375 [5]) [%] | inhibition at 8 µM (MGC-803 [6]) [%] |
| --- | --- | --- | --- | --- | --- | --- | --- | --- | --- | --- | --- | --- |
|  |  |  |  |  |  | Nc1ccccc1NC(=O)c1ccc(CSC(=S)N2CCN(c3ccc(Cl)cc3)CC2)cc1 | 51.2 | 15 | 29 | 44.8 | 32.2 | 17.2 |
|  |  |  |  |  |  | CN(Cc1cccnc1)C(=S)SCc1ccc(C(=O)Nc2ccccc2N)cc1 | 16.4 | 45.9 | 83.8 | 68.7 | 39.4 | 85.5 |
| 3280 | 13.2 | > 32000 | 5.88 | 2.02 | 3.58 | COC(=O)c1ccc2c(c1)CCN2C(=S)SCc1ccc(C(=O)Nc2ccccc2N)cc1 | 45.3 | 37.8 | 79.2 | 60.1 | 37.5 | 73.1 |
|  |  |  |  |  |  | Nc1ccccc1NC(=O)c1ccc(CSC(=S)N2CCN(c3cnccn3)CC2)cc1 | 70.4 | 27.1 | 85.8 | 76.9 | 29.1 | 80.5 |
|  |  |  |  |  |  | Nc1ccccc1NC(=O)c1ccc(CSC(=S)N2CCN(c3ccccc3F)CC2)cc1 | 17.5 | 33.7 | 79.5 | 59.2 | 18.7 | 86.4 |
|  |  |  | 11.3 | 33.8 | 18 | CC(=O)Nc1ccc(C(=O)Nc2ccccc2N)cc1 [TACEDINALINE] | 7.3 | 9.5 | 33.5 | 24.3 | 13.4 | 22.4 |
|  |  |  |  |  |  | Nc1ccccc1NC(=O)c1ccc(CSC(=S)N2CCCc3ccccc32)cc1 | 26.1 | 38.5 | 81.5 | 35.7 | 26.5 | 87.5 |
|  |  |  |  |  |  | Nc1ccccc1NC(=O)c1ccc(CSC(=S)N2CCN(Cc3ccccn3)CC2)cc1 | 14.2 | 23.4 | 82.4 | 61.4 | 20.7 | 65.2 |
|  |  |  |  |  |  | Nc1ccccc1NC(=O)c1ccc(CSC(=S)N2CCCC2)cc1 | 51.3 | 27 | 89.5 | 77.8 | 30.2 | 83.4 |
|  |  |  |  |  |  | CC1CCN(C(=S)SCc2ccc(C(=O)Nc3ccccc3N)cc2)CC1 | 46.8 | 28.1 | 87.4 | 72.5 | 32.7 | 81.9 |
|  |  |  |  |  |  | COc1ccc(N2CCN(C(=S)SCc3ccc(C(=O)Nc4ccccc4N)cc3)CC2)cc1 | 39.4 | 25.3 | 35.9 | 52.3 | 28.1 | 22.9 |
| 1890 | 3.21 | 1880 | 5.28 | 3.28 |  | Nc1ccccc1NC(=O)c1ccc(CSC(=S)N2CCc3cc(Cl)ccc32)cc1 | 40.1 | 57.7 | 82.3 | 65.1 | 31.9 | 82.2 |
|  |  |  |  |  |  | Nc1ccccc1NC(=O)c1ccc(CSC(=S)N2CCN(c3cccnc3)CC2)cc1 | 66.2 | 27.6 | 88.8 | 72.5 | 40.5 | 76.9 |
|  |  |  |  |  |  | Nc1ccccc1NC(=O)c1ccc(CSC(=S)N2CCc3cc([N+](=O)[O-])ccc32)cc1 | 32.6 | 26.8 | 29.5 | 43.6 | 16.9 | 33.2 |
|  |  |  |  |  |  | Cc1ccc(N2CCN(C(=S)SCc3ccc(C(=O)Nc4ccccc4N)cc3)CC2)cc1 | 25.3 | 33.4 | 26.4 | 24 | 25.8 | 19.8 |
|  |  |  |  |  |  | Nc1ccccc1NC(=O)c1ccc(CSC(=S)N2CCN(C3CCCCC3)CC2)cc1 | 30.6 | 16.9 | 89.9 | 76.1 | 31.7 | 75.3 |
